The text below walks through data of patent EP0393786B1, “New retro-inverse, one- or more bond bearing analogues of thymopentin, a method for synthesizing the same and their employment for the preparation of pharmaceutical” (SCLAVO S.p.A., priority 1989, dated 1990).

Data set [1] concerns lymphocytes which secrete antibodies (PFC). Nature of the data set: Hemolysis plate test (PFC) according to Jerne and Nordin, in vivo immunostimulating activity. Also on record: species or system inbred C3H/HeNCrlBr male mice. Particulars: 100 ng of peptide p.o. two hours after SRBC i.v.; spleen lymphocytes after four days; IgM PFC. The procedure:
In particular, the so-called "hemolysis plate test" has been employed (PFC) performed according to the procedure disclosed by Jerne and Nordin.
Said test is carried out by administering through intravenous route to inbred C3H/HeNCrlBr male mice (Calco-Italia) aged 10-12 weeks and of body weight about 25 g, a pyrogen-free saline solution (0.2 ml) containing 1-2 x 10⁸ blood red cells of ram (SRBC). After two hours, groups of three mice each are treated p.o. (intragastric intubation) with 0.2 ml of saline solution (control) or with 0.2 ml of saline solution containing 100 ng of the peptide under test. After four days, the mice are sacrificed and the spleens are drawn and mechanically disrupted to separate the lymphocytes. The lymphocytes so isolated are washed with minimal soil containing Earle salts (MEM) (3 x 15 ml) and then resuspended into the same soil (1 ml) at a final concentration of 150,000 cells. Each cell suspension (0.1 ml) is then diluted 1/100 with MEM soil, and 100 µl of each dilution is added in double to wells of microplates containing 25 µl of MEM soil, 25 µl of a 10 % solution of SRBC antigens and 25 µl of guinea-pig complement at a final dilution of 1/64. The whole suspension is immediately transferred by capillarity from each well onto overlapped glass holder-slides. Such slides, with their edges sealed by means of paraffin, are then put for incubation into a thermostatic chamber at 37°C for one hour.
At the end of such time, the direct hemolysis plates are counted by means of a light-contrast viewer, such plates pointing out the number of lymphocytes which secrete antibodies (PFC). The antibodies so put into evidence are of the class of the IgM's, which are proper of the primary antibody response.

A short description of data set [2]: Stability to enzymic hydrolysis in heparinized human plasma (half-life). The following applies: for half-life, times as much as that of thymopentin: relative to thymopentin.
Method: The incubations were carried out at 37°C, and the drawings of the plasmatic mixtures, each one of 100 µl, were stopped at the various times by addition of trifluoroacetic acid in the ratio of 10%, with successive centrifugation at 10,000 x g, for five minutes. A portion of the supernatant is subjected to chromatography under conditions suitable to put into evidence the change in concentration of the peptide tested at the various time.

For the compound `CC(C)[C@@H](NC(=O)C(Cc1ccc(O)cc1)C(=O)O)NC(=O)[C@H](CC(=O)O)NC(=O)C(CCCCN)C(=O)N[C@@H](N)CCCNC(=N)N` (stereo partly drawn) [Example 1, CH₃COOH.H-g-Arg-(R,S)mLys-Asp-gVal-(R,S)mTyr-OH], in data set [1], the “Plate formation % control” value amounted to 196 % control. The half-life in data set [2] (human) and in data set [2] (test parallel to thymopentin) was more than 360 min in each case.
As to `CC(C)C(C(=O)N[C@H](CC(=O)O)NC(=O)[C@H](CCCCN)NC(=O)[C@@H](N)CCCNC(=N)N)C(=O)N[C@@H](Cc1ccc(O)cc1)C(=O)O` (stereo partly drawn) [Example 2, CH₃COOH.H-Arg-Lys-gAsp-(R,S)mVal-Tyr-OH], in data set [1], the “Plate formation % control” value came out at 132 % control. For the same compound, the half-life (as a rule, the time in which the quantity being followed falls by half) in data set [2] (human) was determined as 10 min. Besides, in data set [2], the “half-life, times as much as that of thymopentin” value is listed as “about 7 times”.
The matching figures for `CC(C)[C@@H](NC(=O)C(Cc1ccc(O)cc1)C(=O)O)NC(=O)[C@H](CC(=O)O)NC(=O)[C@H](CCCCN)NC(=O)[C@@H](N)CCCNC(=N)N` (stereo partly drawn) [Example 3, [gVal⁴,(R,S)mTyr⁵]TP5]: 190 % control, 2.5 min and “about 2 times”.
The compound `CC(C)[C@H](NC(=O)[C@H](CC(=O)O)NC(=O)C(CCCCN)C(=O)NC(N)CCCNC(=N)N)C(=O)N[C@@H](Cc1ccc(O)cc1)C(=O)O` (some centres unmarked) [reference compound] registered a half-life in data set [2] (human) of 22 min.
With “H-Arg-Lys-Asp-Val-Tyr-OH [TP5, reference compound]”, the “Plate formation % control” value in data set [1] is given as 137 % control.
